Where two headings read alike, the source gives them in different places. Marks after values point to notes of the source that are not given here. Bridge positions count the residues as written; N and C are the ends. Peptide text beside a SMILES is read from it. * marks the point of attachment. Me2Gly = CN(C)CC(=O)*
Key:
[1] = Experimental: (§1) This example describes analysis of the pharmacokinetics of a peptide of the disclosure. A ^14C radiolabeled peptide of SEQ ID NO: 15 (SEQ ID NO: 15-r) was administered to 6-10 week old female Harlan athymic mice at a dose of 2 μCi/33 nmol via intravenous administration, intraperitoneal administration, oral administration or subcutaneous administration. At each time point, urine was collected by massaging the abdomen and mice were subsequently euthanized by CO2 asphyxiation. Blood was collected by cardiac exsanguination following cessation of respiratory movement. Plasma was separated by centrifugation and frozen until further analysis. Radioactivity in biological samples (plasma or urine) was detected by liquid scintillation counting on a Beckman Scintillation counter at a read time of 10 minutes. For HPLC evaluation, urine and plasma samples were diluted 20 μl in 80 μl and analyzed on an Agilent analytical HPLC equipped with an inline Raytest scintillation detector. Pharmacokinetics analysis was performed using the PKSolver 2 compartment IV or extravascular bolus.
SEQ ID NO: 15-r was spiked in as a positive control for intact peptide and Glycine was spiked in as a negative control for metabolized peptide. […] HPLC was used to separate peptide fragments and liquid scintillation counting was used to quantify the radioactive signal of intact peptides or peptide fragment. […] SEQ ID NO: 15-r was spiked in as a positive control for intact peptide and Glycine was spiked in as a negative control for metabolized peptide. […] SEQ ID NO: 15-r was spiked in as a positive control for intact peptide and Glycine was spiked in as a negative control for metabolized peptide. […] SEQ ID NO: 15-r was spiked in as a positive control for intact peptide and Glycine was spiked in as a negative control for metabolized peptide.

[2] = Pharmacokinetics of radiolabeled peptide in plasma by liquid scintillation counting (PKSolver 2 compartment); format: in vivo, female Harlan athymic nude mice; design: AUC0-inf (area under the curve): unit not given here; settings: 2 μCi/33 nmol
[3] = remark: listed apart in the source
Experimental: as §1
HPLC was used to separate peptide fragments and liquid scintillation counting was used to quantify the radioactive signal of intact peptides or peptide fragment. SEQ ID NO: 15-r was spiked in as a positive control for intact peptide and Glycine was spiked in as a negative control for metabolized peptide. […] SEQ ID NO: 15-r was spiked in as a positive control for intact peptide and Glycine was spiked in as a negative control for metabolized peptide. […] SEQ ID NO: 15-r was spiked in as a positive control for intact peptide and Glycine was spiked in as a negative control for metabolized peptide. […] SEQ ID NO: 15-r was spiked in as a positive control for intact peptide and Glycine was spiked in as a negative control for metabolized peptide.

[4] = IP, 3 hr, 0 = no intact peptide was measured

CC(C)C[C@@H]1NC(=O)[C@H]([C@@H](C)O)NC(=O)[C@@H]2CSSC[C@@H]3NC(=O)[C@H]([C@@H](C)O)NC(=O)[C@H](CC(N)=O)NC(=O)[C@H](CSSC[C@@H](C(=O)N4CCC[C@H]4C(=O)N[C@@H](CC(N)=O)C(=O)N[C@@H](CCC(N)=O)C(=O)O)NC(=O)[C@H](C)NC(=O)[C@H](CCCNC(=N)N)NC1=O)NC(=O)[C@H](CCCNC(=N)N)NC(=O)[C@H](CC(=O)O)NC(=O)[C@H](CCCNC(=N)N)NC(=O)[C@H](Cc1ccccc1)NC(=O)[C@H]([C@@H](C)O)NC(=O)[C@H](CCCNC(=N)N)NC(=O)CNC(=O)[C@@H]1CCCN1C(=O)[C@H](CCC(=O)O)NC(=O)[C@@H](NC(=O)[C@H](CO)NC(=O)[C@H](CO)NC(=O)CN(C)C)CSSC[C@H](NC(=O)[C@H](CCCNC(=N)N)NC3=O)C(=O)NCC(=O)N[C@@H](C)C(=O)N[C@@H](CC(=O)O)C(=O)NCC(=O)N[C@@H](CCCNC(=N)N)C(=O)N[C@@H](CO)C(=O)N[C@@H](C)C(=O)N[C@@H](C)C(=O)N2 [SEQ ID NO: 15-r] (Me2Gly-SSCEPGRTFRDRCNTCRCGADGRSAACTLRACPNQ-OH; disulfide 3-18, 13-32, 16-27 (inferred); N-terminus and C-terminus assumed)
percentage of AUC of intact peptide of the total radioactive signal (total AUC) in urine ([1]; IP, 5 min): 60%
percentage of AUC of intact peptide of the total radioactive signal (total AUC) in urine ([1]; IP, 30 min): 49%
percentage of AUC of intact peptide of the total radioactive signal (total AUC) in urine [1, 4]: 0%
percentage of AUC of intact peptide of the total radioactive signal (total AUC) in urine ([1]; IP, 24 hr, 0 = no intact peptide was measured): 0%
percentage of AUC of intact peptide of the total radioactive signal (total AUC) in urine ([1]; IP, 48 hr, 0 = no intact peptide was measured): 0%
percentage of AUC of intact peptide of the total radioactive signal (total AUC) in urine ([1]; IV, 5 min): 77%
percentage of AUC of intact peptide of the total radioactive signal (total AUC) in urine ([1]; IV, 30 min): 47%
percentage of AUC of intact peptide of the total radioactive signal (total AUC) in urine ([1]; IV, 1 hr): 43%
percentage of AUC of intact peptide of the total radioactive signal (total AUC) in urine ([1]; IV, 3 hr, 0 = no intact peptide was measured): 0%
percentage of AUC of intact peptide of the total radioactive signal (total AUC) in urine ([1]; IV, 8 hr, 0 = no intact peptide was measured): 0%
percentage of AUC of intact peptide of the total radioactive signal (total AUC) in urine ([1]; IV, 24 hr, 0 = no intact peptide was measured): 0%
percentage of AUC of intact peptide of the total radioactive signal (total AUC) in urine ([1]; PO, 3 hr, 0 = no intact peptide was measured): 0%
percentage of AUC of intact peptide of the total radioactive signal (total AUC) in urine ([1]; PO, 8 hr, 0 = no intact peptide was measured): 0%
percentage of AUC of intact peptide of the total radioactive signal (total AUC) in urine ([1]; PO, 48 hr, 0 = no intact peptide was measured): 0%
percentage of AUC of intact peptide of the total radioactive signal (total AUC) in urine ([1]; SC, 5 min, 0 = no intact peptide was measured): 0%
percentage of AUC of intact peptide of the total radioactive signal (total AUC) in urine ([1]; SC, 30 min, 0 = no intact peptide was measured): 0%
percentage of AUC of intact peptide of the total radioactive signal (total AUC) in urine ([1]; SC, 1 hr, 0 = no intact peptide was measured): 0%
percentage of AUC of intact peptide of the total radioactive signal (total AUC) in urine ([1]; SC, 8 hr, 0 = no intact peptide was measured): 0%
percentage of AUC of intact peptide of the total radioactive signal (total AUC) in urine ([1]; SC, 48 hr, 0 = no intact peptide was measured): 0%
time by which intact peptide in urine dropped to baseline ([1]; intraperitoneal injection): ≤ 3 h
time by which intact peptide signal in urine reached baseline ([1]; intravenous injection): ≤ 3 h
intact peptide observed in urine ([1]; oral administration): intact peptide was not observed in urine
intact peptide observed in urine ([1]; subcutaneous administration): intact peptide was not observed in urine
AUC0-inf (area under the curve) ([2]; IP): 25.59
CL/F (drug clearance over time) ([2]; IP): 1.28 nmol/(pmol/μl)/h
Cmax (peak drug concentration) ([2]; IP): 5.23 pmol/µL
AUC0-inf (area under the curve) ([2]; IV): 19.08
CL/F (drug clearance over time) ([2]; IV): 1.73 nmol/(pmol/μl)/h
Cmax (peak drug concentration) ([2]; IV): 33* pmol/μl
AUC0-inf (area under the curve) ([2]; Oral): 46
CL/F (drug clearance over time) ([2]; Oral): 0.53 nmol/(pmol/μl)/h
Cmax (peak drug concentration) ([2]; Oral): 0.59 pmol/µL
AUC0-inf (area under the curve) ([2]; SC): 171
CL/F (drug clearance over time) ([2]; SC): 0.144 nmol/(pmol/μl)/h
Cmax (peak drug concentration) ([2]; SC): 8.57 pmol/µL
percentage of AUC of intact peptide of the total radioactive signal (total AUC) in plasma ([3]; IP, 5 min): 94%
percentage of AUC of intact peptide of the total radioactive signal (total AUC) in plasma ([3]; IP, 30 min): 100%
percentage of AUC of intact peptide of the total radioactive signal (total AUC) in plasma ([3]; IP, 1 hr): 66%
percentage of AUC of intact peptide of the total radioactive signal (total AUC) in plasma [3, 4]: 0%
percentage of AUC of intact peptide of the total radioactive signal (total AUC) in plasma ([3]; IV, 5 min): 92%
percentage of AUC of intact peptide of the total radioactive signal (total AUC) in plasma ([3]; IV, 30 min): 100%
percentage of AUC of intact peptide of the total radioactive signal (total AUC) in plasma ([3]; PO, 8 hr): 45%
percentage of AUC of intact peptide of the total radioactive signal (total AUC) in plasma ([3]; SC, 5 min): 100%
percentage of AUC of intact peptide of the total radioactive signal (total AUC) in plasma ([3]; SC, 30 min): 88%
percentage of AUC of intact peptide of the total radioactive signal (total AUC) in plasma ([3]; SC, 1 hr): 50%
time by which intact peptide signal in plasma reached baseline ([3]; intraperitoneal injection): ≤ 3 h
time by which intact peptide signal in plasma reached baseline ([3]; intravenous injection): ≤ 3 h
intact peptide or breakdown products observed in plasma ([3]; oral administration): neither intact peptide or breakdown products of the peptide were observed in plasma

Reference: patent US20190292243A1, “PEPTIDES AND METHODS OF USE THEREOF” (Fred Hutchinson Cancer Research Center, priority 2016, published 2019)
